In PMC3599540, “4-Aryl-4H-naphthopyrans derivatives: one-pot synthesis, evaluation of Src kinase inhibitory and anti-proliferative activities” (DARU Journal of Pharmaceutical Sciences, 2012):

Columns and labels:
c-Src kinase = molecular target: T1, c-Src kinase (Homo sapiens, UniProt P12931); test: c-Src kinase activity assay (HTScan Src Kinase Assay Kit); assay type: biochemical; settings: concentration that inhibited enzyme activity by 50%; triplicate; read-out: IC50 (inhibition of Src kinase activity)
T1 construct: purchased Cell Signaling Technology (Danvers, MA, USA) 7776
T1 sequence (P12931 whole entry): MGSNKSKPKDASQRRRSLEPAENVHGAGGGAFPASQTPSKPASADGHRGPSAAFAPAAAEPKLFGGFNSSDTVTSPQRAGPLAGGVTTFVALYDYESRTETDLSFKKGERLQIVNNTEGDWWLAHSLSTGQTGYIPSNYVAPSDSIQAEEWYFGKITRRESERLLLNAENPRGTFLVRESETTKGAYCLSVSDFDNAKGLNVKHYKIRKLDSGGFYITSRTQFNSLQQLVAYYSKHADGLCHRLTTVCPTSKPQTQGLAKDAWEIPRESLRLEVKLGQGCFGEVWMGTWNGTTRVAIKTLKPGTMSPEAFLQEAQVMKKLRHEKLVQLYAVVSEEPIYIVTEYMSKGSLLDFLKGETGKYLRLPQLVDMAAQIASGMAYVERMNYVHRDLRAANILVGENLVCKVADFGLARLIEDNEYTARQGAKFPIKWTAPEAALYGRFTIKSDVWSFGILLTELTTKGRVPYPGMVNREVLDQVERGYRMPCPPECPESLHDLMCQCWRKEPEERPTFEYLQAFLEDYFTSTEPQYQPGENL
Experimental: Streptavidin-coated plates were purchased from Pierce (Rockford, IL, USA). […] The reaction mixture was incubated for 30 min at room temperature. The kinase reaction was stopped with the addition of 50 μL of 50 mM EDTA (pH 8.0). […] At the end of the incubation, the wells were washed three times with 200 μL of 0.05% Tween-20 in PBS buffer (PBS/T). After that to each well was added 100 μL of phosphotyrosine antibody (P-Tyr-100) (1:1000 dilution in PBS/T with 1% BSA) and the wells were incubated for another 60 min. After washing three times with 0.05% Tween-20 in PBS/T, the wells were incubated with 100 μL secondary anti-mouse IgG antibody, which was HRP-conjugated (1:500 dilution in PBS/T with 1% BSA) for next 30 min at room temperature. The wells were washed five times with 0.05% Tween-20 in PBS and then were incubated with 100 μL of 3,3',5,5'-tetramethylbenzidine dihydrochloride (TMB) substrate for 5 min. The reaction was stopped by adding 100 μL/well of stop solution to each well and mixed well and read the absorbance at 450 nm using a microplate reader (Molecular devices, spectra Max M2). IC50 values of the compounds were calculated using ORIGIN 6.0 (origin lab) software. […] All the experiments were carried out in triplicate.

[1] = tested on: mesenchymal stem cell proliferation; design: method as in PMID 9562601; settings: cited from earlier work
[2] = tested on: breast carcinoma (BT-20) cell line; test: Cell proliferation assay (CellTiter 96) in BT-20 cells; assay type: cell-based; settings: DOX 10 μM, 72 h incubation, relative to DMSO control
Experimental: Breast carcinoma BT-20 (ATCC no. HTB-19) cell lines were obtained from American Type Culture Collection. Cells were grown on 75 cm^2 cell culture with EMEM medium for breast carcinoma and supplemented with 10% fetal bovine serum (FBS), and 1% penicillin-streptomycin solution (10,000 units of penicillin and 10 mg of streptomycin in 0.9% NaCl) in a humidified atmosphere of 5% CO2, 95% air at 37°C.
Cell proliferation assay of compounds was evaluated in BT-20 cells, and was compared with that of doxorubicin (DOX)[38]. Cell proliferation assay was carried out using CellTiter 96 aqueous one solution cell proliferation assay kit (Promega, USA). Briefly, upon reaching about 75-80% confluence, 5000 cells/well were plated in 96-well microplate in 100 μL media. After seeding for 72 h, the cells were treated with 50 μM compound in triplicate. […] The absorbance of the formazan product was measured at 490 nm using microplate reader. The blank control was recorded by measuring the absorbance at 490 nm with wells containing medium mixed with CellTiter 96 aqueous solution but no cells. Results were expressed as the percentage of the control (DMSO without compound set at 100%). The percentage of cell survival was calculated as (OD value of cells treated with test compound - OD value of culture medium) / (OD value of control cells – OD value of culture medium) × 100%. […]

Compound | IC50 (c-Src kinase) [µM] | further results
CSc1ccc(C2C(C#N)=C(N)OC3=C2CCc2ccccc23)cc1 (stereo not drawn) [compound B, 4-aryl-4H-5,6-dihydronaphtho[1,2-b]pyran] |  | IC50 [1]: 13 µM
COc1cccc2c1C(=O)c1c(O)c3c(c(O)c1C2=O)C[C@@](O)(C(=O)CO)C[C@@H]3O[C@H]1C[C@H](N)[C@H](O)[C@H](C)O1 [doxorubicin] |  | Inhibition of BT-20 cell growth (positive control) [2]: 25%

Further lines, with some results ahead:

IC50 (c-Src kinase) [µM] | Compound | further results
34.7 | N#CC1=C(N)Oc2c(ccc3ccccc23)C1c1ccccc1Cl (stereo not drawn) [Compound 4d] | 
33.8 | N#CC1=C(N)Oc2ccc3ccccc3c2C1c1cccc(O)c1 (stereo not drawn) [Compound 4m] | 
41.7 | N#CC1=C(N)Oc2ccc3ccccc3c2C1c1cccc(Cl)c1 (stereo not drawn) [Compound 4j] | 
34.5 | COc1ccc(C2C(C#N)=C(N)Oc3ccc4ccccc4c32)cc1 (stereo not drawn) [Compound 4n] | 
